Where two headings read alike, the source gives them in different places.
Tests used:
INPP5B catalytic domain = INPP5B catalytic domain (Homo sapiens, UniProt P32019); test: Malachite green assay with IP3 substrate, dose response; type: biochemical
INPP5E = target: T1, INPP5E (Homo sapiens, UniProt Q9NRR6); test: Fluorescence polarization; type: biochemical
T1 sequence (Q9NRR6 294-598 limits assumed): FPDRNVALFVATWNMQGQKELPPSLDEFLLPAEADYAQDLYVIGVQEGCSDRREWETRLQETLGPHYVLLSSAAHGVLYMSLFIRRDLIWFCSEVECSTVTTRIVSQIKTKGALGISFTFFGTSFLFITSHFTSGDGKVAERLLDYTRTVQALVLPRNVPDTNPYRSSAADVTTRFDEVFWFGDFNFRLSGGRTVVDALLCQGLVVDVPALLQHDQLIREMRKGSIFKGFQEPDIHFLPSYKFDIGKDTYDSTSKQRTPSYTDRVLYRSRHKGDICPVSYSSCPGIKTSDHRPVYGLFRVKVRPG

human dermal fibroblasts = test: Cellular inositol lipid levels, 3H-myo-inositol labeling and HPLC; type: cell-based; details: 50 μM, 1 hour treatment
[1] = system: 5-phosphatase domain of human OCRL in COS-7 cells; test: Optogenetic in situ phosphatase assay; type: cell-based; details: 50 μM, COS-7, n=14 cells, P<0.001 vs DMSO control
[2] = target: catalytic domain of human INPP5B (Homo sapiens, UniProt P32019); test: Isothermal titration calorimetry; type: binding
INPP5B [3] = target: T2, INPP5B (Homo sapiens, UniProt P32019); test: biochemical
INPP5B [4] = target: T2, INPP5B; test: biochemical; remark: listed apart in the source
SHIP1 = target: T3, SHIP1 (Mus musculus, UniProt Q9ES52); test: Fluorescence polarization; type: biochemical
T3 sequence (Q9ES52 1-1191): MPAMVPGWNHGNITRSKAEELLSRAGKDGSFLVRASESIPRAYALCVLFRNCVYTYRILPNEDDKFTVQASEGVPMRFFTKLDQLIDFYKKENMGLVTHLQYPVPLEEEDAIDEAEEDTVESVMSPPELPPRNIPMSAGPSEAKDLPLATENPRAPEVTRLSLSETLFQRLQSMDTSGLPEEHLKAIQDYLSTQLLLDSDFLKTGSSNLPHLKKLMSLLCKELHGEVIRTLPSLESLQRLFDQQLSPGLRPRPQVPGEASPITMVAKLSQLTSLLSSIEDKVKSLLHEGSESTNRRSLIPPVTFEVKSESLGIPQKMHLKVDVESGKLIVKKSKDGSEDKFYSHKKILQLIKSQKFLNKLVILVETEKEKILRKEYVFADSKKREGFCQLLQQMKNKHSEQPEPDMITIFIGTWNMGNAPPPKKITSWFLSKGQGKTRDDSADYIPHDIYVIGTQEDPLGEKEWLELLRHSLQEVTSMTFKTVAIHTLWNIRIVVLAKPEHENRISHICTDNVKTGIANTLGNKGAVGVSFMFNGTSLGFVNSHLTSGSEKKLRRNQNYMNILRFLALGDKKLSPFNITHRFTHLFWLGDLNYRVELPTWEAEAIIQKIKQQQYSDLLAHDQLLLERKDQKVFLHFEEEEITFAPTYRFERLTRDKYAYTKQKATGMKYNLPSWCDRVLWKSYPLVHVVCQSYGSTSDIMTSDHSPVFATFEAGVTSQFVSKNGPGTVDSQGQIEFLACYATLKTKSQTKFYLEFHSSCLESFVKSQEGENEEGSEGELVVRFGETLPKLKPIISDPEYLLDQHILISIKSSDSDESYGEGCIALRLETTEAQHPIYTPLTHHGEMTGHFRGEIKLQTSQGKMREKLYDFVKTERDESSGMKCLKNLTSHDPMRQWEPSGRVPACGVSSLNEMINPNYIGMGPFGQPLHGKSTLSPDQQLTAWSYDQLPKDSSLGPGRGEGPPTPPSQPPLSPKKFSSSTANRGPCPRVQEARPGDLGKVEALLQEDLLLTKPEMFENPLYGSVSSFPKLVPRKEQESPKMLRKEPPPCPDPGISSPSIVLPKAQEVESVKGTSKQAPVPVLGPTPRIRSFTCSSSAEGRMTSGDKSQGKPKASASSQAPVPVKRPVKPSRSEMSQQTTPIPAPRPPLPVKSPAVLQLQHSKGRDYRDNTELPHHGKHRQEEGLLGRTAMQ

INPP5A = target: T4, INPP5A (Homo sapiens, UniProt Q14642); test: Malachite green assay with IP3 substrate, dose response; type: biochemical
T4 sequence (Q14642 1-402): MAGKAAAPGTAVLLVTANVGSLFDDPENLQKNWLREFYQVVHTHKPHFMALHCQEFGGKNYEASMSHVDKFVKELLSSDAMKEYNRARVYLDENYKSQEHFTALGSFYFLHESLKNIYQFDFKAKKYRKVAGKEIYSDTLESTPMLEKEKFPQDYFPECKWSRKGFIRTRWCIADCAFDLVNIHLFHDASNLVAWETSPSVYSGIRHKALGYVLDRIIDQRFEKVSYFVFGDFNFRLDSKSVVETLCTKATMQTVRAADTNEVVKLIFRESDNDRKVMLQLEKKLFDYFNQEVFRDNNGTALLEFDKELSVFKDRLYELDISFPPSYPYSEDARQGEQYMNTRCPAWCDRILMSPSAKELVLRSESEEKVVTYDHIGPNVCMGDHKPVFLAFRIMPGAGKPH

Synaptojanin 1 (SJ1) = Synaptojanin 1 (SJ1) (Homo sapiens, UniProt O43426); test: Fluorescence polarization; type: biochemical
cell cultures = details: preliminary experiments / data not shown

SMILES	IC50 (INPP5B catalytic domain) [µM]	IC50 (INPP5E) [µM]	N (stoichiometry, ITC) ([2]; 25°C)	ΔH (ITC) ([2]; 25°C)	ΔS (ITC) ([2]; 25°C)	Ka (association constant, ITC) ([2]; 25°C, 500 µM compound into 33 µM INPP5B catalytic domain, 5% DMSO)	IC50 (INPP5B [3]) [µM]	IC50 (INPP5B [4]) [µM]	IC50 (SHIP1) [µM]	IC50 (INPP5A) [µM]	IC50 (Synaptojanin 1 (SJ1)) [µM]	Heat of binding to INPP5B catalytic domain (ITC, in words) ([2]; protein precipitation during the experiment, results inconclusive, data not shown)	All other phosphoinositide levels measured (human dermal fibroblasts)	Loss (drop) of plasma membrane iRFP-PH-PLCδ1 fluorescence [1] [%]	Toxicity on cell cultures (cell cultures)
c1cc(-c2nnc3scnn23)ccn1 [YU142670]	0.53	> 70	0.9108 ± 0.0547	−7270 ± 588.6	0.5933	2.352×10^5 ± 8.744×10^4	17.5						remained unchanged	32±3	
COc1cc(-c2nnc3sc(-c4cccs4)nn23)cc(OC)c1OC [YU142717]	0.92							2.63							
COc1cc(CN)c(Br)cc1OCc1ccccc1Cl [YU144118]	1.1	5.77							8.97	1.81	1.3				

More lines, main results first:

IC50 (INPP5B catalytic domain) [µM]	IC50 (INPP5E) [µM]	N (stoichiometry, ITC) ([2]; 25°C)	ΔH (ITC) ([2]; 25°C)	ΔS (ITC) ([2]; 25°C)	Ka (association constant, ITC) ([2]; 25°C, 500 µM compound into 33 µM INPP5B catalytic domain, 5% DMSO)	IC50 (INPP5B [3]) [µM]	IC50 (INPP5B [4]) [µM]	IC50 (SHIP1) [µM]	IC50 (INPP5A) [µM]	IC50 (Synaptojanin 1 (SJ1)) [µM]	Heat of binding to INPP5B catalytic domain (ITC, in words) ([2]; protein precipitation during the experiment, results inconclusive, data not shown)	SMILES	All other phosphoinositide levels measured (human dermal fibroblasts)	Loss (drop) of plasma membrane iRFP-PH-PLCδ1 fluorescence [1] [%]	Toxicity on cell cultures (cell cultures)
0.57	2.33							2.52	1.07	3.63	measurable heat of binding	CCOc1cc(CN)cc(Br)c1OCC [YU144369]			acute toxicity
0.81	2.8							2.89	1.44	> 70		CC(C)Oc1c(Cl)cc(CN)cc1Cl [YU144530]			
